In paper PMC8659006 (Molecules, 2021):
In brackets after ≈: the same amount, converted by molar mass. Read-outs that look alike come from different tables or passages of the source. Blank lines part the entries; values can stand above or below the compound they belong to. Where no end group is shown, it is not given here.

Key:
[1] = test system: P. aeruginosa 337005, S. aureus 1882 and ETEC K88; assay type: cell-based
Protocol: (§1) The reference strains P. aeruginosa 337005, S. aureus 1882 and ETEC K88 were cultivated at 37 °C for 12 h. […] Then, 180 µL MH broth per well were added to the microtiter plate (Corning, Corning, NY, USA), and then 2 µL of the diluted bacterial solution was dispensed into each well. Peptides were then serially diluted with Milli-Q water, and 20 µL dilutions were added to the wells. Then, 2 µL Milli-Q water instead of 2 µL diluted bacterial solution was used as a blank control, and 20 µL Milli-Q water instead of 20 µL peptide dilution was used as a growth control. After culturing for 12 h at 37 °C, the MIC of the reference strain was observed, and the experiment was performed in three independent replicates.

S. aureus 1882 = assay type: cell-based, Staphylococcus aureus
Protocol: as §1

ETEC K88 [2] = test: MIC, microbroth dilution; assay type: cell-based, Enterotoxigenic Escherichia coli; settings: micro-dilution in MH broth, 37 °C, 12 h, three independent replicates
Protocol: as §1

P.aeruginosa 337005 = assay type: cell-based, Pseudomonas aeruginosa
Protocol: as §1

human erythrocytes = settings: 90 µg/mL; cited from earlier work
Source text: The low hemolytic activity of antimicrobial peptides on mammalian red blood cells is very important in clinical applications.

ETEC K88 [3] = test: Propidium iodide uptake (membrane permeabilization); assay type: cell-based, Enterotoxigenic Escherichia coli; settings: 100% = 0.05% SDS, average of 3 replicates
Protocol: PI can stain DNA, but cannot penetrate the complete cell membrane. Therefore, the fluorescence intensity of PI is positively correlated with the degree of cell membrane damage. The reference strain ETEC K88 was cultured at 37 °C for 12 h, and then diluted to 5 × 10^5 CFU/mL. Then, 10 µg/mL PI (Thermo Fisher, Waltham, MH, USA) was added to the diluted bacterial solution. […] The fluorescence intensity was measured using a microplate reader (Synergy H1, Bio Tek, Winooski, VT, USA) at the excitation wavelength and emission wavelength of 535 nm and 617 nm, respectively. During the continued 120 min reaction, the fluorescence values were monitored every 10 min. The PBS was a negative control, and 0.05% SDS was a positive control.

ETEC K88 [4] = test: pH stability, antibacterial activity by inhibition zone; assay type: physicochemical, Enterotoxigenic Escherichia coli; settings: pH 4.0 to 9.0, 2 h, n = 3
Protocol: (§2) ETEC K88 was used as a reference strain. […] The experiment was performed in three independent replicates.
(§3) The reference strain was ETEC K88.

ETEC K88 [5] = test: Inhibition zone, Kirby–Bauer diffusion method; assay type: cell-based, Enterotoxigenic Escherichia coli; settings: 50 µL on filter disk, 37 °C, 12 h, compared to PBS control and SUMO-TEV-CLP, n = 3
Protocol: as §2

ETEC K88 [6] = test: Scanning electron microscopy of treated bacteria; assay type: cell-based, Enterotoxigenic Escherichia coli
Protocol: Scanning electron microscopy (SEM) was used to observe the damage of CLP to bacterial cell membranes. ETEC K88 was incubated at 37 °C for 12 h and then diluted with PBS to 5 × 10^5 CFU/mL. […] The CLP-treated ETEC K88 was washed with PBS and treated with 2.5% glutaraldehyde overnight. After dehydrating with alcohol and drying for gold coating, the samples were imaged by Quanta 200 (FEI).

ETEC K88 [7] = test: Thermal stability, antibacterial activity by inhibition zone; assay type: physicochemical, Enterotoxigenic Escherichia coli; settings: for Antimicrobial activity after heat treatment: n = 3
Protocol: as §2, §3

[8] = range over P. aeruginosa 337005, S. aureus 1882, ETEC K88
[9] = micro-dilution in MH broth, 37 °C, 12 h, three independent replicates

Compound: CC[C@H](C)[C@H](NC(=O)[C@H](CCCCN)NC(=O)[C@H](CCC(=O)O)NC(=O)[C@H](CCCCN)NC(=O)[C@H](CO)NC(=O)[C@H](CCCCN)NC(=O)[C@H](CCCNC(=N)N)NC(=O)[C@H](Cc1ccccc1)NC(=O)[C@H](Cc1ccccc1)NC(=O)[C@H](CC(=O)O)NC(=O)CNC(=O)[C@H](CC(C)C)NC(=O)[C@@H](N)CC(C)C)C(=O)NCC(=O)N[C@@H](CCCCN)C(=O)N[C@@H](CCC(=O)O)C(=O)N[C@@H](Cc1ccccc1)C(=O)N[C@@H](CCCCN)C(=O)N[C@@H](CCCNC(=N)N)C(=O)N[C@H](C(=O)N[C@H](C(=O)N[C@@H](CCC(N)=O)C(=O)N[C@@H](CCCNC(=N)N)C(=O)N[C@H](C(=O)N[C@@H](CCCCN)C(=O)N[C@@H](CC(=O)O)C(=O)N[C@@H](Cc1ccccc1)C(=O)N[C@@H](CC(C)C)C(=O)N[C@@H](CCCNC(=N)N)C(=O)N[C@@H](CC(N)=O)C(=O)N[C@@H](CC(C)C)C(=O)N[C@H](C(=O)N1CCC[C@H]1C(=O)N[C@@H](CCCNC(=N)N)C(=O)N[C@H](C(=O)N[C@@H](CCC(=O)O)C(=O)N[C@@H](CO)C(=O)O)[C@@H](C)O)C(C)C)[C@@H](C)CC)C(C)C)[C@@H](C)CC [LL37]
MICs for all the three reference strains (range) [1, 8]: 16 to 32 µg/mL | MIC (S. aureus 1882; [9]): 32 µg/mL (≈ 7.12 µM) | MIC (ETEC K88 [2]): 16 µg/mL (≈ 3.56 µM) | MIC (P.aeruginosa 337005; [9]): 32 µg/mL (≈ 7.12 µM) | Hemolysis (human erythrocytes): about 30%

Compound: KWKLFKKIIGKEFKRIVQRIKDFLRNLVPRTERKDVT [rCLP]
Increase of PI fluorescence uptake (ETEC K88 [3]; 0.5 × MIC (1 µg/mL), 50 min): 16.0% | Increase of PI fluorescence uptake (ETEC K88 [3]; 0.5 × MIC (1 µg/mL), 120 min): 51.5% | Increase of PI fluorescence uptake (ETEC K88 [3]; 2 × MIC (4 µg/mL), 50 min): 83.3% | Increase of PI fluorescence uptake (ETEC K88 [3]; 2 × MIC (4 µg/mL), 120 min): 97.0% | MICs for all the three reference strains (range) ([1]; 12 h): 2 to 8 µg/mL | Activity maintained throughout pH range (ETEC K88 [4]): more than 74.8% | Inhibition zone against ETEC K88 (ETEC K88 [5]): significantly inhibited the growth | MIC (S. aureus 1882; 1882, 12 h): 8 µg/mL | Membrane morphology by SEM (ETEC K88 [6]): damaged the integrity of the bacterial cell membrane | Antimicrobial activity after heat treatment (ETEC K88 [7]; 70 °C for 30 min): almost completely retained | Antimicrobial activity after heat treatment (ETEC K88 [7]; temperatures above 70 °C (up to 100 °C), 30 min): significantly reduced the activity | MIC (P.aeruginosa 337005; 337005, 12 h): 2 µg/mL

Compound: KWKLFKKIIGKEFKRIVQRIKDFLRNLVPRTERKDVT [sCLP]
MIC (S. aureus 1882; 1882, 12 h): 8 µg/mL | Stability compared with recombinant CLP (ETEC K88 [7]; same temperature, pH value and enzyme treatment): almost the same stability | MIC (P.aeruginosa 337005; 337005, 12 h): 2 µg/mL

MICs for all the three reference strains (range) [1, 8]: over 512 µg/mL
Compound: RKDVY [TP5]
